Assay results taken from patent US12589156B2, “Benzimidazole and benzimidazolone based protac compounds for the targeted degradation of leucine rich repeat kinase 2 (LRRK2)” (Arvinas Operations, Inc., priority 2023, dated 2026).

Target: T1, WT LRRK2 (Homo sapiens, UniProt Q5S007)
T1 construct: endogenous in cells; host or cells: HEK293 (endogenous LRRK2 gene knock-in tagged with HiBit; stably expressing CMV-driven firefly luciferase)
Test: LRRK2 HiBit degradation assay (Nano-Glo Dual Luciferase) in HEK293 cells with HiBit-tagged endogenous LRRK2
Format: cell-based
In short: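 HEK293 cells carrying endogenous C-terminally HiBit-tagged LRRK2 and stably expressing CMV-driven firefly luciferase were treated for 24 h at 37° C with an 11-point 1:3 series from a 1 μM final top concentration. Nano-Glo Dual Luciferase read LRRK2-HiBit against firefly signal. Alamar Blue gave viability, and signals were normalized to DMSO median before curve fitting.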

[1] = HEK293, Table 2, maximal degradation, HiBit-tagged LRRK2 in HEK293 cells, 24 hours treatment
[2] = HEK293, Table 3, comparison with direct comparators, maximal degradation
[3] = Table 2, HiBit-tagged LRRK2 in HEK293 cells, 24 hours treatment, starting concentration 1 μM
[4] = Table 3, comparison with direct comparators, HiBit-tagged LRRK2 in HEK293 cells, 24 hours treatment

T1 sequence (Q5S007 whole entry): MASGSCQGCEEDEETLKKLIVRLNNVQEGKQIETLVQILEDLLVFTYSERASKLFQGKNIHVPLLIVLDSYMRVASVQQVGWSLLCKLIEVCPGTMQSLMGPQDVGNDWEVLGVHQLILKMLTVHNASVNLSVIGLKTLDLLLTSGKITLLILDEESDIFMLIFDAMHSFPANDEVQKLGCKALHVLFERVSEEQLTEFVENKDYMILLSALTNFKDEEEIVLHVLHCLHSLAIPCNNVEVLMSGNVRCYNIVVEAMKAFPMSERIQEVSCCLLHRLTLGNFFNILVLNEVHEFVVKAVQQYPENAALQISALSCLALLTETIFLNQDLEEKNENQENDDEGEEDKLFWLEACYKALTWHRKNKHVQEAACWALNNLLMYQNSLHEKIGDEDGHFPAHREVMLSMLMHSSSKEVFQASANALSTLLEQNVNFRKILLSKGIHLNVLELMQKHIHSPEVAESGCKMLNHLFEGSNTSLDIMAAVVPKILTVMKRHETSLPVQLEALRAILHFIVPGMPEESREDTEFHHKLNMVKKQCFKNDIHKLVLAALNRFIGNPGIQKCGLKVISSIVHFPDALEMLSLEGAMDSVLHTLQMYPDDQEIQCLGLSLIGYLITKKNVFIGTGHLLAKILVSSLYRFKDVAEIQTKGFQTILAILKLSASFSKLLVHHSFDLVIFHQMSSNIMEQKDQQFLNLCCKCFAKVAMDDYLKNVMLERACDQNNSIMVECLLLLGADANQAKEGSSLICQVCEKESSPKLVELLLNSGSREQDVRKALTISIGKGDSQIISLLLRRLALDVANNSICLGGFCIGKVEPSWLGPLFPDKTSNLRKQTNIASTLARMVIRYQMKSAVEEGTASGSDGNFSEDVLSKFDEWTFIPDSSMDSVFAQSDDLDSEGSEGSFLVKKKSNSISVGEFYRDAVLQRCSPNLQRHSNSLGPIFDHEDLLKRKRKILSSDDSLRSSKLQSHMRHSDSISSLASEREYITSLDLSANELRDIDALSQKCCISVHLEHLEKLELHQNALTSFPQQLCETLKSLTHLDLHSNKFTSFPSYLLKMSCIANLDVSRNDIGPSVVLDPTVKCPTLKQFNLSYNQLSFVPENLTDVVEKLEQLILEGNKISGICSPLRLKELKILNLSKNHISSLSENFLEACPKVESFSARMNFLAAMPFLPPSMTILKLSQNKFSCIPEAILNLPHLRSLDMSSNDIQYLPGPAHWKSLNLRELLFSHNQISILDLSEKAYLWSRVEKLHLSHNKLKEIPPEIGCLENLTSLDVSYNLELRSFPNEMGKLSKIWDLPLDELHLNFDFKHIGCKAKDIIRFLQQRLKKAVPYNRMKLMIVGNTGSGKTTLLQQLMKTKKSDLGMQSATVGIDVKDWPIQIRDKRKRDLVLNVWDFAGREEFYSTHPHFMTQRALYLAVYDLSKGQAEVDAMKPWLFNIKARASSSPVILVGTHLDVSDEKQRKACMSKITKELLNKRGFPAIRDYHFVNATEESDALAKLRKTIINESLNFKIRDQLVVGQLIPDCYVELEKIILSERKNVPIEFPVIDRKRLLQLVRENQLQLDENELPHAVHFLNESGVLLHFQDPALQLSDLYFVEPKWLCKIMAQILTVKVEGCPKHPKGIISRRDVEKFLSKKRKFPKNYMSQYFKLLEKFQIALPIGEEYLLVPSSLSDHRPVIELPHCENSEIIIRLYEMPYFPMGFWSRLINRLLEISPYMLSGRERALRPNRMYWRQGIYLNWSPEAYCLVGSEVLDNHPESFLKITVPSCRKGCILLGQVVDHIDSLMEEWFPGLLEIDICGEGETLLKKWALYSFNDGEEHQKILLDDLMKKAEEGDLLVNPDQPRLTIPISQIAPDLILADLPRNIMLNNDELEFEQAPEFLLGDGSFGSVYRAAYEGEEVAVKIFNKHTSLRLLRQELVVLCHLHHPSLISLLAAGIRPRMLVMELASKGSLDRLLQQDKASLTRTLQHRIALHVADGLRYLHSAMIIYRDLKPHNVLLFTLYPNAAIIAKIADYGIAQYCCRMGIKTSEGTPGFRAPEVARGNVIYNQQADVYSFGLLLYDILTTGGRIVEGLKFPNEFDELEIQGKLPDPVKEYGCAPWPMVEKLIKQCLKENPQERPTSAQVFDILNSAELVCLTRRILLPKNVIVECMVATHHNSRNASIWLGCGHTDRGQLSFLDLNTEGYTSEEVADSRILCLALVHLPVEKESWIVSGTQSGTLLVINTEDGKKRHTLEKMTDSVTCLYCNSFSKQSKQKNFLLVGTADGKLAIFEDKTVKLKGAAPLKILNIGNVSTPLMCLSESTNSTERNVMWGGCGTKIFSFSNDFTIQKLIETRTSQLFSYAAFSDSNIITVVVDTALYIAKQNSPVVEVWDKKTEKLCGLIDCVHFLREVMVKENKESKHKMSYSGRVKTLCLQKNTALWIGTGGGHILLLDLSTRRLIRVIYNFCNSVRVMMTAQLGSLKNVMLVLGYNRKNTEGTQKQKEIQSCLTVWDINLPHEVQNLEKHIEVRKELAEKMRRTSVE

SMILES | Dmax [1] | Dmax [2] | DC50 [3] | DC50 [4] | increase in WT LRRK2 DC50 activity when compared to Comparator Example (versus comparator bearing a 3-(4-methoxy-1-oxoisoindolin-2-yl)piperidine-2,6-dione group) | WT LRRK2 **Dmax (%) (Table 2, maximal degradation, HiBit-tagged LRRK2 in HEK293 cells, 24 hours treatment)
Cn1c(=O)n(C2CCC(=O)NC2=O)c2ccc(N3CCC(O[C@H]4CC[C@H](CN5CCN(c6cc(-c7n[nH]c8cnc(OC9(C)CC9)cc78)ncn6)CC5)CC4)CC3)cc21 (stereo partly drawn) [Compound 1, 3-[3-methyl-2-oxo-5-(4-{[(1r,4r)-4-[(4-{6-[5-(1-methylcyclopropoxy)-1H-pyrazolo[3,4-c]pyridin-3-yl]pyrimidin-4-yl}piperazin-1-yl)methyl]cyclohexyl]oxy}piperidin-1-yl)-2,3-dihydro-1H-1,3-benzodiazol-1-yl]piperidine-2,6-dione] | 53% | 53% | 0.14 nM | 0.14 nM | > 40 fold | –
CC(C)n1c(=O)n(C2CCC(=O)NC2=O)c2ccc(N3CCC(CN4CCN(CC5CCN(c6cc(-c7n[nH]c8ccc(OC9(C)CC9)cc78)ncn6)CC5)C(C)(C)C4)CC3)cc21 (stereo not drawn) [Compound 2, 3-{5-[4-({3,3-dimethyl-4-[(1-{6-[5-(1-methylcyclopropoxy)-1H-indazol-3-yl]pyrimidin-4-yl}piperidin-4-yl)methyl]piperazin-1-yl}methyl)piperidin-1-yl]-2-oxo-3-(propan-2-yl)-2,3-dihydro-1H-1,3-benzodiazol-1-yl}piperidine-2,6-dione] | 55% | – | 0.18 nM | – | – | –
CC1(Oc2ccc3[nH]nc(-c4cc(N5CCN(C[C@H]6CC[C@H](OC7CCN(c8cccc9c8ncn9C8CCC(=O)NC8=O)CC7)CC6)CC5)ncn4)c3c2)CC1 (stereo partly drawn) [Compound 3, 3-[4-(4-{[(1r,4r)-4-[(4-{6-[5-(1-methylcyclopropoxy)-1H-indazol-3-yl]pyrimidin-4-yl}piperazin-1-yl)methyl]cyclohexyl]oxy}piperidin-1-yl)-1H-1,3-benzodiazol-1-yl]piperidine-2,6-dione] | 30% | 30% | 28 nM | 28 nM | – | –
CC1(Oc2ccc3[nH]nc(-c4cc(N5CCN(CC6CCC(OC7CCN(c8ccc9ncn(C%10CCC(=O)NC%10=O)c9c8)CC7)CC6)CC5)ncn4)c3c2)CC1 (stereo not drawn) [Compound 4, 3-[6-(4-{[(1r,4r)-4-[(4-{6-[5-(1-methylcyclopropoxy)-1H-indazol-3-yl]pyrimidin-4-yl}piperazin-1-yl)methyl]cyclohexyl]oxy}piperidin-1-yl)-1H-1,3-benzodiazol-1-yl]piperidine-2,6-dione] | – | – | 7.5 nM | – | – | 62%
Cn1c(=O)n(C2CCC(=O)NC2=O)c2cc(N3CCC(OC4CCC(CN5CCN(c6cc(-c7n[nH]c8ccc(OC9(C)CC9)cc78)ncn6)CC5)CC4)CC3)ccc21 (stereo not drawn) [Compound 5, 3-[3-methyl-2-oxo-6-(4-{[(1r,4r)-4-[(4-{6-[5-(1-methylcyclopropoxy)-1H-indazol-3-yl]pyrimidin-4-yl}piperazin-1-yl)methyl]cyclohexyl]oxy}piperidin-1-yl)-2,3-dihydro-1H-1,3-benzodiazol-1-yl]piperidine-2,6-dione] | – | – | ≥ 1000 nM | – | – | –
Cn1c(=O)n(C2CCC(=O)NC2=O)c2cccc(N3CCC(CN4CCN(CC5CCN(c6cc(-c7n[nH]c8ccc(OC9(C)CC9)cc78)ncn6)CC5)C(C)(C)C4)CC3)c21 (stereo not drawn) [Compound 8, 3-{4-[4-({3,3-dimethyl-4-[(1-{6-[5-(1-methylcyclopropoxy)-1H-indazol-3-yl]pyrimidin-4-yl}piperidin-4-yl)methyl]piperazin-1-yl}methyl)piperidin-1-yl]-3-methyl-2-oxo-2,3-dihydro-1H-1,3-benzodiazol-1-yl}piperidine-2,6-dione] | 65% | 65% | 1.2 nM | 1.2 nM | – | –
Cn1c(=O)n(C2CCC(=O)NC2=O)c2cccc(N3CCC(O[C@H]4CC[C@H](CN5CCN(c6cc(-c7n[nH]c8ccc(OC9(C)CC9)cc78)ncn6)CC5)CC4)CC3)c21 (stereo partly drawn) [Compound 9, 3-[3-methyl-2-oxo-4-(4-{[(1r,4r)-4-[(4-{6-[5-(1-methylcyclopropoxy)-1H-indazol-3-yl]pyrimidin-4-yl}piperazin-1-yl)methyl]cyclohexyl]oxy}piperidin-1-yl)-2,3-dihydro-1H-1,3-benzodiazol-1-yl]piperidine-2,6-dione] | 66% | 66% | 1.2 nM | 1.2 nM | – | –
CC1(Oc2ccc3[nH]nc(-c4cc(N5CCC(CN6CCN(CC7CCN(c8ccc9ncn(C%10CCC(=O)NC%10=O)c9c8)CC7)CC6(C)C)CC5)ncn4)c3c2)CC1 (stereo not drawn) [Compound 10, 3-{6-[4-({3,3-dimethyl-4-[(1-{6-[5-(1-methylcyclopropoxy)-1H-indazol-3-yl]pyrimidin-4-yl}piperidin-4-yl)methyl]piperazin-1-yl}methyl)piperidin-1-yl]-1H-1,3-benzodiazol-1-yl}piperidine-2,6-dione] | 69% | – | 4.5 nM | – | – | –
CC1(Oc2ccc3[nH]nc(-c4cc(N5CCC(CN6CCN(CC7CCN(c8ccc9c(c8)ncn9C8CCC(=O)NC8=O)CC7)CC6(C)C)CC5)ncn4)c3c2)CC1 (stereo not drawn) [Compound 13, 3-{5-[4-({3,3-dimethyl-4-[(1-{6-[5-(1-methylcyclopropoxy)-1H-indazol-3-yl]pyrimidin-4-yl}piperidin-4-yl)methyl]piperazin-1-yl}methyl)piperidin-1-yl]-1H-1,3-benzodiazol-1-yl}piperidine-2,6-dione] | 64% | 64% | 1 nM | 1 nM | – | –

The next lines start with results.

Dmax [1] | Dmax [2] | DC50 [3] | DC50 [4] | increase in WT LRRK2 DC50 activity when compared to Comparator Example (versus comparator bearing a 3-(4-methoxy-1-oxoisoindolin-2-yl)piperidine-2,6-dione group) | SMILES | WT LRRK2 **Dmax (%) (Table 2, maximal degradation, HiBit-tagged LRRK2 in HEK293 cells, 24 hours treatment)
58% | 58% | 0.17 nM | 0.17 nM | – | Cn1c(=O)n(C2CCC(=O)NC2=O)c2ccc(N3CCC(O[C@H]4CC[C@H](CN5CCN(c6cc(-c7n[nH]c8ccc(OC9(C)CC9)cc78)ncn6)CC5)CC4)CC3)cc21 (stereo partly drawn) [Compound 6, 3-[3-methyl-2-oxo-5-(4-{[(1r,4r)-4-[(4-{6-[5-(1-methylcyclopropoxy)-1H-indazol-3-yl]pyrimidin-4-yl}piperazin-1-yl)methyl]cyclohexyl]oxy}piperidin-1-yl)-2,3-dihydro-1H-1,3-benzodiazol-1-yl]piperidine-2,6-dione] | –
64% | – | 6.4 nM | – | – | CC1(Oc2ccc3[nH]nc(-c4cc(N5CCC(CN6CCN(CC7CCN(c8ccc9ncn(C%10CCC(=O)NC%10=O)c9c8)CC7)CC6)CC5)ncn4)c3c2)CC1 (stereo not drawn) [Compound 7, 3-{6-[4-({4-[(1-{6-[5-(1-methylcyclopropoxy)-1H-indazol-3-yl]pyrimidin-4-yl}piperidin-4-yl)methyl]piperazin-1-yl}methyl)piperidin-1-yl]-1H-1,3-benzodiazol-1-yl}piperidine-2,6-dione] | –
62% | 62% | 1.6 nM | 1.6 nM | – | CC1(Oc2ccc3[nH]nc(-c4cc(N5CCC(CN6CCN(CC7CCN(c8ccc9c(c8)ncn9C8CCC(=O)NC8=O)CC7)CC6)CC5)ncn4)c3c2)CC1 (stereo not drawn) [Compound 11, 3-{5-[4-({4-[(1-{6-[5-(1-methylcyclopropoxy)-1H-indazol-3-yl]pyrimidin-4-yl}piperidin-4-yl)methyl]piperazin-1-yl}methyl)piperidin-1-yl]-1H-1,3-benzodiazol-1-yl}piperidine-2,6-dione] | –
64% | 64% | 0.17 nM | 0.17 nM | – | Cn1c(=O)n(C2CCC(=O)NC2=O)c2ccc(N3CCC(CN4CCN(CC5CCN(c6cc(-c7n[nH]c8ccc(OC9(C)CC9)cc78)ncn6)CC5)CC4)CC3)cc21 (stereo not drawn) [Compound 12, 3-{3-methyl-5-[4-({4-[(1-{6-[5-(1-methylcyclopropoxy)-1H-indazol-3-yl]pyrimidin-4-yl}piperidin-4-yl)methyl]piperazin-1-yl}methyl)piperidin-1-yl]-2-oxo-2,3-dihydro-1H-1,3-benzodiazol-1-yl}piperidine-2,6-dione] | –
58% | 58% | 0.22 nM | 0.22 nM | – | Cn1c(=O)n(C2CCC(=O)NC2=O)c2ccc(N3CCC(CN4CCN(CC5CCN(c6cc(-c7n[nH]c8ccc(OC9(C)CC9)cc78)ncn6)CC5)C(C)(C)C4)CC3)cc21 (stereo not drawn) [Compound 14, 3-{5-[4-({3,3-dimethyl-4-[(1-{6-[5-(1-methylcyclopropoxy)-1H-indazol-3-yl]pyrimidin-4-yl}piperidin-4-yl)methyl]piperazin-1-yl}methyl)piperidin-1-yl]-3-methyl-2-oxo-2,3-dihydro-1H-1,3-benzodiazol-1-yl}piperidine-2,6-dione] | –
59% | 59% | 1.5 nM | 1.5 nM | – | Cn1c(=O)n(C2CCC(=O)NC2=O)c2cccc(N3CCC(CN4CCN(CC5CCN(c6cc(-c7n[nH]c8ccc(OC9(C)CC9)cc78)ncn6)CC5)CC4)CC3)c21 (stereo not drawn) [Compound 15, 3-{3-methyl-4-[4-({4-[(1-{6-[5-(1-methylcyclopropoxy)-1H-indazol-3-yl]pyrimidin-4-yl}piperidin-4-yl)methyl]piperazin-1-yl}methyl)piperidin-1-yl]-2-oxo-2,3-dihydro-1H-1,3-benzodiazol-1-yl}piperidine-2,6-dione] | –
– | – | ≥ 1000 nM | – | – | Cn1c(=O)n(C2CCC(=O)NC2=O)c2cc(N3CCC(CN4CCN(CC5CCN(c6cc(-c7n[nH]c8ccc(OC9(C)CC9)cc78)ncn6)CC5)CC4)CC3)ccc21 (stereo not drawn) [Compound 16, 3-{3-methyl-6-[4-({4-[(1-{6-[5-(1-methylcyclopropoxy)-1H-indazol-3-yl]pyrimidin-4-yl}piperidin-4-yl)methyl]piperazin-1-yl}methyl)piperidin-1-yl]-2-oxo-2,3-dihydro-1H-1,3-benzodiazol-1-yl}piperidine-2,6-dione] | –
